Values joined by “and” are separate entries in the source; they are usually repeats but may differ in a detail not shown here. Equal values may be shown once. “Also recorded” adds a separate entry of the source. Read-outs that look alike come from different tables or passages of the source. Where a SMILES comes first, the peptide text is derived from it. Bridges are numbered along the chain shown (N, C = ends). [ ]: non-standard residue; d: D form. The star is where a group is joined. Octanoyl = CCCCCCCC(=O)*; Dab = NCC[C@H](N)C(=O)O; Abu = CC[C@H](N)C(=O)O
Assays:
P. aeruginosa ATCC 27853 = tested on: P. aeruginosa ATCC 27853
Method: (§1) Synergy studies were performed by using polymyxin derivatives in combination with rifampin, a model compound for such antibacterial agents that the intact outer membrane of Gram-negative bacteria acts as a permeability barrier.

P. aeruginosa JMI 7445 = tested on: P. aeruginosa JMI 7445
Method: as §1

A. baumannii JMI 48125 = tested on: A. baumannii JMI 48125
Method: as §1

K. pneumoniae JMI 27072 = tested on: K. pneumoniae JMI 27072
Method: as §1

A. baumannii ATCC 19606 = tested on: A. baumannii ATCC 19606
Method: as §1

E. coli JMI 3328 = tested on: E. coli JMI 3328
Method: as §1

E. coli ATCC 25922 = tested on: E. coli ATCC 25922
Method: as §1

K. pneumoniae ATCC 43816 = tested on: K. pneumoniae ATCC 43816
Method: as §1

[1] = 7-day intravenous toxicity (nephrotoxicity) study in cynomolgus monkeys; conditions: for kidney injury markers (S-BUN, S-Crea, U-NAG/Crea, U-GGT/Crea) / animals euthanized due to severe nephrotoxic effects: IV infusion TID, seven days; for animals euthanized due to severe nephrotoxic effects: 3 animals per group
Method: In vivo toxicity and toxicokinetic studies were performed by using cynomolgus monkeys. The laboratory that performed the animal studies is accredited by the Association for Assessment and Accreditation of Laboratory Animal Care (AAALAC), has an Animal Welfare Assurance issued by the Office of Laboratory Animal Welfare (OLAW), is registered with the United States Department of Agriculture (USDA), and has an Institutional Animal Care and Use Committee (IACUC) responsible for compliance with applicable laws and regulations concerning the humane care and use of laboratory animals.
Naive female cynomolgus monkeys were acclimatized to study room for 28 days during which each animal was implanted with a permanent indwelling femoral catheter to permit continuous intravenous infusions. The animals were allowed surgical recovery period of at least 2 weeks before initiating dosing.
Polymyxin B sulfate was from Sigma-Aldrich (catalogue number P0972, lot number BCBF8382V). On each day of use, appropriate quantities of NAB739, NAB815 or polymyxin B were weighed and dissolved in appropriate volumes of sterile saline to prepare a stock solution for each test article and positive control. A correction factor was used in the stock solution preparation to account for both the purity and sulfate content in each test article. Accordingly, the dose (such as 36 mg/kg/d) refers to the dose of the pure peptide as its free base form, not as its sulfate salt.
The doses were the following: polymyxin B 18 mg/kg/d (Group 1), polymyxin B 24 mg/kg/d (Group 2), NAB739 24 mg/kg/d (Group 3), NAB739 36 mg/kg/d (Group 4), NAB815 24 mg/kg/d (Group 5), NAB815 36 mg/kg/d (Group 6). Three animals were included in each study groups.
(§2) For seven days, the animals were dosed by intravenous (IV) infusion three times daily (TID) at a dose volume of 10 mL/kg for 1 hour (± 10 minutes), 8 ± 0.5 hours apart. The day of initial dose administration was designated study Day 1, with subsequent days consecutively numbered. Days prior to the initial dose administration were consecutively numbered with the final day of acclimation referenced as Day -1.
(§3) The following parameters were evaluated at designed intervals: clinical observations, body weights, clinical pathology (hematology, coagulation, serum chemistry, urinalysis including urine sediments and urine chemistry), toxi-cokinetics (plasma and urine) and anatomic pathology (kidney). In cases of animals sacrificed on an unscheduled basis, samples were taken on the day of the sacrifice.
On the day of necropsy, animals were sedated with ketamine, weighed, and anesthetized with an intravenous injection of a commercial pentobarbital and phenytoin solution, followed by exsanguinations.
At necropsy, gross observations and organ weights were recorded, and specific tissues were collected. Histopathology was conducted on sections of kidney stained with hematoxylin and eosin (H&E).
The figures also show Urine N-acetyl-β-D-glucosaminidase/urine creatinine ratio (U-NAG/Crea; Fig. 3) and Urine Gamma Glutamyltransferase/urine creatinine ratio (U-GGT/Crea; Fig. 4), both urine biomarkers for kidney injury, in those animals. S-Crea and U-Crea were measured by using an Olympus Analyzer (OA) and the modified Jaffe method, S-BUN by using OA and urease/L-glutamate dehydrogenase. U-NAG was measured by using OA/enzymatic, and U-GGT by using OA and glutamyl-carboxy-p-nitroanilide IFCC.
The presence of the following nephropathological parameters was recorded in each animal: tubular basophilia (regeneration), tubular degeneration/necrosis, infiltration (by mononuclear and/or mixed inflammatory cells), tubular dilatation, and tubular casts.

[2] = Toxicokinetics (plasma and urine levels by LC-MS/MS) in cynomolgus monkeys; conditions: for urinary recoveries (0-8 h urine collection) / urine concentrations (in 0-8 h urine collection): 36 mg/kg/d; for concentration in the urine: after infusion at 8 mg/kg, highest found either in the 0-4 h or 4-8 h sample, given for each animal; for concentration in the urine / 0-8 h recovery in urine: 8 mg/kg; for 0-8 h recovery in urine: after the infusion of 8 mg/kg, percentages given for each animal
Method: as §2, §3
Plasma and urine concentrations for toxicokinetic (TK) studies were determined by using liquid chromatograph interfaced with a mass spectrometer after precipitation of proteins. A sample (100 µL) was mixed with internal standard solution in water:formic acid (99:1 v/v; […]). Then, 600µL of 100:1 acetonitrile:formic acid was added. The plates were centrifuged at 3200 rpm for 5 minutes. Using a Tomtec Quadra96, a 450 µL aliquot was transferred to a new 96-well plate and dried under nitrogen at 40°C. Then, 200 µL of water:methanol:formic acid (85:15:1 1 v/v) was added and the plate sealed for LC-MS/MS injection. LC-MS system consisted of Waters Acquity liquid chromatograph interfaced with a Thermo Scientific TSQ Quantitative triple quadrupole MS with ionization in the positive ion mode. Each sample (20 µL) was injected onto a Waters Acquity BEH Shield RP18 column (2.1 x 50 mm; 1.7 µm) equilibrated at 50°C. Mobile Phase A was 85:15:1 v/v water:methanol:formic acid. Mobile Phase B was 50:50:1 v/v acetonitrile:methanol:formic acid.
Peak area ratios from the calibration standard responses were regressed using a (1/concentration^2) linear fit for polymyxin B using colistin as the internal standard. For NAB739 and NAB815, peak areas from the calibration standard responses were regressed using a (1/concentration^2) quadratic fit (without the use of an internal standard).
Toxicokinetic analysis was performed by using WinNonlin Phoenix version 6.3 software (Pharsight, Cary, NC). For plasma TK, noncompartmental IV infusion model was used.
The data is from the cynomolgus monkey studies described in the Example 3, where the peptides were administered as a 1-hour intravenous infusion thrice a day. The plasma and urine levels of the peptides were determined as in Example 3.

K. pneumoniae JMI 27068 = test: MIC assay (CLSI broth microdilution; checkerboard with rifampin); format: cell-based, Klebsiella pneumoniae; conditions: polymyxin-nonsusceptible strain
Method: as §1

E. coli JMI 109 = test: as above; format: cell-based, Escherichia coli; conditions: polymyxin-nonsusceptible strain
Method: as §1

A. baumannii CMI 417 = test: as above; format: cell-based, Acinetobacter baumannii; conditions: polymyxin-nonsusceptible strain
Method: as §1

[3] = alone, Müller-Hinton II broth, 35°C, 20 hours
[4] = in combination with rifampin (0.25 µg/mL), duplicate checkerboard assays

CCCCCCCC(=O)N[C@@H](CCN)C(=O)N[C@H](C(=O)N[C@@H](C(=O)N[C@H]1CCNC(=O)[C@H]([C@@H](C)O)NC(=O)[C@H](CCN)NC(=O)[C@H](CC)NC(=O)[C@H](CC(C)C)NC(=O)[C@@H](Cc2ccccc2)NC(=O)[C@H](CCN)NC1=O)[C@H](C)O)[C@@H](C)O [NAB815, octanoyl - αDab -Thr - DThr-[cyclo-α,yDab - αDab - DPhe- Leu -Abu -αDab - Thr]] (Octanoyl-[Dab]T[dT][Dab][Dab][dF]L[Abu][Dab]T; lactam 4-C)
MIC (P. aeruginosa ATCC 27853; [3]): 16 µg/mL | MIC (P. aeruginosa ATCC 27853; [4]): >8 µg/mL | MIC (P. aeruginosa JMI 7445; [3]): 8 µg/mL | MIC (P. aeruginosa JMI 7445; [4]): 4 µg/mL | MIC (A. baumannii JMI 48125; [3]): 2 µg/mL | MIC (A. baumannii JMI 48125; [4]): 0.5 to 2 µg/mL | MIC (K. pneumoniae JMI 27072; [3]): 2 to 4 µg/mL | MIC (K. pneumoniae JMI 27072; [4]): 1 to 2 µg/mL | MIC (A. baumannii ATCC 19606; [3]): 4 µg/mL | MIC (A. baumannii ATCC 19606; [4]): 0.5 to 2 µg/mL | MIC (E. coli JMI 3328; [3]): 4 µg/mL | MIC (E. coli JMI 3328; [4]): 1 µg/mL | MIC (E. coli ATCC 25922; [3]): 2 µg/mL | MIC (E. coli ATCC 25922; [4]): 1 µg/mL | MIC (K. pneumoniae ATCC 43816; [3]): 2 to 4 µg/mL | MIC (K. pneumoniae ATCC 43816; [4]): 1 µg/mL | kidney injury markers (S-BUN, S-Crea, U-NAG/Crea, U-GGT/Crea) ([1]; 24 mg/kg/d): None of the parameters was elevated | kidney injury markers (S-BUN, S-Crea, U-NAG/Crea, U-GGT/Crea) ([1]; 36 mg/kg/d): only minor if any elevations in the four parameters | animals euthanized due to severe nephrotoxic effects ([1]; 36 mg/kg/d): underwent no prescheduled necropsy | kidney histopathology findings (nephropathological parameters) ([1]; 36 mg/kg/d, H&E kidney sections, five parameters graded 0 no significant findings, 1 minimal, 2 mild, 3 moderate, 4 marked): moderate findings, both in one parameter only; also recorded: no other than minimal or mild findings | urinary recoveries (0-8 h urine collection) ([2]; day 1, per animal): 14.3% and 20.9% and 36.3% | urine concentrations (in 0-8 h urine collection) ([2]; day 1, per animal): 173 µg/mL and 265 µg/mL and 114 µg/mL | urinary recoveries (0-8 h urine collection) ([2]; day 7, per animal): 40.5% and 41.9% | urine concentrations (in 0-8 h urine collection) ([2]; day 7, per animal): 17 µg/mL and 62 µg/mL and 149 µg/mL | concentration in the urine [2]: 175 µg/mL and 225 µg/mL and 260 µg/mL | 0-8 h recovery in urine [2]: up to 38 % of the dose and ≤ 55 % of the dose and ≤ 88 % of the dose | MIC (K. pneumoniae JMI 27068; [3]): 128 µg/mL | MIC (K. pneumoniae JMI 27068; [4]): 4 µg/mL | MIC (E. coli JMI 109; [3]): 128 µg/mL | MIC (E. coli JMI 109; [4]): 1 µg/mL | MIC (A. baumannii CMI 417; [3]): 256 µg/mL | MIC (A. baumannii CMI 417; [4]): 2 µg/mL

CCCCCCCC(=O)N[C@H](C(=O)N[C@H](CO)C(=O)N[C@H]1CCNC(=O)[C@H]([C@@H](C)O)NC(=O)[C@H](CCN)NC(=O)[C@H](CCN)NC(=O)[C@H](CC(C)C)NC(=O)[C@@H](Cc2ccccc2)NC(=O)[C@H](CCN)NC1=O)[C@@H](C)O [NAB739, octanoyl -Thr - DSer-[cyclo-α,γDab - αDab - DPhe- Leu - αDab -αDab - Thr]] (Octanoyl-T[dS][Dab][Dab][dF]L[Dab][Dab]T; lactam 3-C)
MIC (P. aeruginosa ATCC 27853; [4]): 4 to 8 µg/mL | MIC (P. aeruginosa JMI 7445; [3]): 4 µg/mL | MIC (P. aeruginosa JMI 7445; [4]): 4 µg/mL | MIC (A. baumannii JMI 48125; [3]): 2 to 4 µg/mL | MIC (A. baumannii JMI 48125; [4]): 0.5 µg/mL | MIC (K. pneumoniae JMI 27072; [3]): 2 to 4 µg/mL | MIC (K. pneumoniae JMI 27072; [4]): 1 µg/mL | MIC (A. baumannii ATCC 19606; [3]): 4 µg/mL | MIC (A. baumannii ATCC 19606; [4]): 0.5 µg/mL | MIC (E. coli JMI 3328): 1 µg/mL | MIC (E. coli JMI 3328; [3]): 2 µg/mL | MIC (E. coli ATCC 25922): 1 µg/mL | MIC (E. coli ATCC 25922; [3]): 2 µg/mL | MIC (K. pneumoniae ATCC 43816): 1 to 2 µg/mL | MIC (K. pneumoniae ATCC 43816; [3]): 4 µg/mL | kidney injury markers (S-BUN, S-Crea, U-NAG/Crea, U-GGT/Crea) ([1]; 24 mg/kg/d): one animal receiving NAB739 displayed marked increase in S-Crea | animals euthanized due to severe nephrotoxic effects ([1]; 36 mg/kg/d): One animal | urinary recoveries (0-8 h urine collection) ([2]; day 1, per animal): 20.4% and 26.4% | urine concentrations (in 0-8 h urine collection) ([2]; day 1, per animal): 92 µg/mL and 33 µg/mL and 82 µg/mL | urinary recoveries (0-8 h urine collection) ([2]; day 7, per animal): 30.6% and 55.8% | urine concentrations (in 0-8 h urine collection) ([2]; day 7, per animal): 268 µg/mL and 348 µg/mL | concentration in the urine [2]: 80 µg/mL and 140 µg/mL and 155 µg/mL | 0-8 h recovery in urine [2]: up to 20 % of the dose and ≤ 91 % of the dose and ≤ 92 % of the dose | MIC (K. pneumoniae JMI 27068; [3]): 128 µg/mL | MIC (K. pneumoniae JMI 27068; [4]): 2 µg/mL | MIC (E. coli JMI 109; [3]): 32 µg/mL | MIC (E. coli JMI 109; [4]): 1 µg/mL | MIC (A. baumannii CMI 417; [3]): 128 µg/mL | MIC (A. baumannii CMI 417; [4]): 2 µg/mL

Source: EP3045469A1, “POLYMYXIN DERIVATIVE AND USES THEREOF” (priority 2015, dated 2016)
